Common to all, as to format: biochemical
Assay [1] has as its target T1, Recombinant human Tyro3 (455-end) (Homo sapiens, UniProt Q06418).
T1 construct: GST (N); made in house; host or cells: Sf9 insect cells (baculovirus)
T1 sequence (Q06418 455-890 limits assumed): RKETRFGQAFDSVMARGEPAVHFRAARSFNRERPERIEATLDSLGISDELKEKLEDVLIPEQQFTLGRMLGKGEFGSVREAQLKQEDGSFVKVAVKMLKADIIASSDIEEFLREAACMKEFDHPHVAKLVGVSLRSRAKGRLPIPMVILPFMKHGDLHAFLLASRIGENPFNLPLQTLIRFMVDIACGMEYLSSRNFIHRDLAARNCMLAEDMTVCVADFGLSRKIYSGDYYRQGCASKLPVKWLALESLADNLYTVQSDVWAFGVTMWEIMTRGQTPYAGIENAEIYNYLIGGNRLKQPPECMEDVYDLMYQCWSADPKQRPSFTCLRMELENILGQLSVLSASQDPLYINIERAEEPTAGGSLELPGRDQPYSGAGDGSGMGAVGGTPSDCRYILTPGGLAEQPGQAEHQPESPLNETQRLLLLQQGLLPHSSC
Kind of assay: Kinase enzymatic activity assay ([33P]-ATP phosphate transfer), Tyro3. The note with it: inhibitory activity on Tyro3; class symbols. Summed up:
(§1)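 Kinases were N-terminal GST-tagged constructs expressed in Sf9 cells, with poly(Glu:Tyr 4:1) as substrate. Reactions ran in MOPS buffer pH 7.2 with MgCl2 and [33P]-ATP (250 μM cocktail stock) for 30 min at room temperature. Filter-bound radioactivity gave % inhibition, and IC50 was taken from serial dilutions.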

For assay [2], the target named is T2, human Axl (473-end) (Homo sapiens, UniProt P30530).
T2 construct: GST (N); made in house; host or cells: Sf9 insect cells (baculovirus)
T2 sequence (P30530 473-894 limits assumed): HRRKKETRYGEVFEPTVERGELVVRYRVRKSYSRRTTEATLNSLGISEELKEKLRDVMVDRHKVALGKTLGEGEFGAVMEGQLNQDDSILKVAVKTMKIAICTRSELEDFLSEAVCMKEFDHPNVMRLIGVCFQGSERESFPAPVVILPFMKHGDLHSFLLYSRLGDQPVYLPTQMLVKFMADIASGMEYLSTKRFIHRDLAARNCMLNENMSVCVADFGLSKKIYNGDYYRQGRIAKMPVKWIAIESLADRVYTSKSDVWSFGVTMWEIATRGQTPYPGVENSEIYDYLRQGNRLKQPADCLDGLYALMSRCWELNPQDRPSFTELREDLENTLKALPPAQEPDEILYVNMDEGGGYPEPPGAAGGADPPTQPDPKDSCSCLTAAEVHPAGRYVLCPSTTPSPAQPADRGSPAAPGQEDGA
Kind of assay: Kinase enzymatic activity assay ([33P]-ATP phosphate transfer), Axl. The note with it: inhibitory activity on Axl; class symbols. Summed up:
as §1

Assay [3] addresses T3, human Mer (578-872) (Homo sapiens, UniProt Q12866).
T3 construct: GST (N); made in house; host or cells: Sf9 insect cells (baculovirus)
T3 sequence (Q12866 578-872): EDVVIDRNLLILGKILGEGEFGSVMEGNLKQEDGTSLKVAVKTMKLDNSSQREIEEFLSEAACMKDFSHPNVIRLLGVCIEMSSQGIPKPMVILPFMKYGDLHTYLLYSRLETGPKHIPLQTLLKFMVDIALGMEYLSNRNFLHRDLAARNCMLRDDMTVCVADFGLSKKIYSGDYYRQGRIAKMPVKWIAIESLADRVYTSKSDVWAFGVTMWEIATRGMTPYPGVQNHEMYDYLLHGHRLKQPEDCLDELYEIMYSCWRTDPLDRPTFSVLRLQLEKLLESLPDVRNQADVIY
The assay can be described thus: Kinase enzymatic activity assay ([33P]-ATP phosphate transfer), Mer. Particulars: inhibitory activity on Mer; class symbols. In short, it runs like this:
as §1

Take `Nc1ncc(-c2cnn(C3CCOCC3)c2)cc1-c1noc(-c2ccccc2)n1` [3-(5-phenyl-1,2,4-oxadiazol-3-yl)-5-(1-(tetrahydro-2H-pyran-4-yl)-1H-pyrazol-4-yl)pyridin-2-amine]: the results for the half-maximal inhibitory concentration (IC50) in assay [1], in assay [2] and in assay [3] were 500 to 1000 nM, less than 500 nM and 1000 to 10000 nM, respectively.

In the case of `Nc1ncc(-c2cn[nH]c2)cc1-c1noc(-c2ccccc2)n1` [3-(5-phenyl-1,2,4-oxadiazol-3-yl)-5-(1H-pyrazol-4-yl)pyridin-2-amine], the IC50 in assay [1] is less than 500 nM; in assay [2], less than 500 nM; in assay [3] it was 1000 to 10000 nM.

For the compound `Nc1ncc(-c2cnn(C3CCNCC3)c2)cc1-c1nnc(-c2ccccc2)o1` [3-(5-phenyl-1,3,4-oxadiazol-2-yl)-5-(1-(piperidin-4-yl)-1H-pyrazol-4-yl)pyridin-2-amine], the 50% inhibitory concentration (IC50) in assay [1], in assay [2] and in assay [3] was less than 500 nM in each case.

For `Nc1ncc(-c2cnn(C3CCOCC3)c2)cc1-c1nnc(-c2ccccc2)o1` [3-(5-phenyl-1,3,4-oxadiazol-2-yl)-5-(1-(tetrahydro-2H-pyran-4-yl)-1H-pyrazol-4-yl)pyridin-2-amine], the IC50 in assay [1], in assay [2] and in assay [3] was less than 500 nM in each case.

As to `Nc1ncc(-c2cn[nH]c2)cc1-c1nnc(-c2ccccc2)o1` [3-(5-phenyl-1,3,4-oxadiazol-2-yl)-5-(1H-pyrazol-4-yl)pyridin-2-amine], the half-inhibitory concentration (IC50) is less than 500 nM in assay [1], less than 500 nM in assay [2] and 500 to 1000 nM in assay [3].

As to `Nc1ncc(-c2cnn(C3CCNCC3)c2)cc1-c1ccc(-c2ccccc2)o1` [3-(5-phenylfuran-2-yl)-5-(1-(piperidin-4-yl)-1H-pyrazol-4-yl)pyridin-2-amine], the IC50 in assay [1] was less than 500 nM; in assay [2], less than 500 nM; in assay [3] it was 500 to 1000 nM.

Take `Nc1ncc(-c2cnn(C3CCOCC3)c2)cc1-c1ccc(-c2ccccc2)o1` [3-(5-phenylfuran-2-yl)-5-(1-(tetrahydro-2H-pyran-4-yl)-1H-pyrazol-4-yl)pyridin-2-amine]: the IC50 in assay [1], in assay [2] and in assay [3] was 1000 to 10000 nM throughout.

With `Nc1ncc(-c2cnn(C3CCNCC3)c2)cc1-c1cc(-c2ccccc2)on1` [3-(5-phenylisoxazol-3-yl)-5-(1-(piperidin-4-yl)-1H-pyrazol-4-yl)pyridin-2-amine], the half-inhibitory concentration (IC50) in assay [1], in assay [2] and in assay [3] was less than 500 nM each time.

As to `Nc1ncc(-c2cnn(C3CCOCC3)c2)cc1-c1cc(-c2ccccc2)on1` [3-(5-phenylisoxazol-3-yl)-5-(1-(tetrahydro-2H-pyran-4-yl)-1H-pyrazol-4-yl)pyridin-2-amine], the IC50 was less than 500 nM in assay [1], less than 500 nM in assay [2] and 1000 to 10000 nM in assay [3].

Take `Nc1ncc(-c2cnn(C3CCNCC3)c2)cc1-c1ncc(-c2ccccc2)o1` [3-(5-phenyloxazol-2-yl)-5-(1-(piperidin-4-yl)-1H-pyrazol-4-yl)pyridin-2-amine]: the IC50 in assay [1], in assay [2] and in assay [3] was less than 500 nM in each case.

Turning to `Nc1ncc(-c2cnn(C3CCOCC3)c2)cc1-c1ncc(-c2ccccc2)o1` [3-(5-phenyloxazol-2-yl)-5-(1-(tetrahydro-2H-pyran-4-yl)-1H-pyrazol-4-yl)pyridin-2-amine], the IC50 was less than 500 nM in assay [1], less than 500 nM in assay [2] and more than 10000 nM in assay [3].

With `CCN1CCC(n2cc(-c3cnc(N)c(-c4nc(-c5ccccc5)no4)c3)cn2)CC1` [5-(1-(1-ethylpiperidin-4-yl)-1H-pyrazol-4-yl)-3-(3-phenyl-1,2,4-oxadiazol-5-yl)pyridin-2-amine], the IC50 in assay [1], in assay [2] and in assay [3] was less than 500 nM in each case.

For the compound `CCN1CCC(n2cc(-c3cnc(N)c(-c4ncc(-c5ccccc5)o4)c3)cn2)CC1` [5-(1-(1-ethylpiperidin-4-yl)-1H-pyrazol-4-yl)-3-(5-phenyloxazol-2-yl)pyridin-2-amine], the IC50 in assay [1], in assay [2] and in assay [3] was less than 500 nM throughout.

These data come from patent US11034685B2, “Aminopyridine derivatives as TAM family kinase inhibitors” (SignalChem Lifesciences Corporation, priority 2013, dated 2021).
